Results taken from ChEMBL document CHEMBL1125549, “Computer-aided mapping of the beta-adrenoceptor. 1. Explanation for effect of para substitution on blocking activity at the beta-1-adrenoceptor” (J Med Chem, 1992).

Legend:
[1] = molecular target: T1, Beta-1 adrenergic receptor (Cavia porcellus, UniProt B0FL73); experiment: Activity at beta-1 adrenergic receptor; conditions: read-out: pA2 (converted)
[2] = molecular target: T1, Beta-1 adrenergic receptor; experiment: Compound was tested for the biological activity at the Beta-1 adrenergic receptor; conditions: read-out: pA2 (converted)

T1 sequence (B0FL73 whole entry): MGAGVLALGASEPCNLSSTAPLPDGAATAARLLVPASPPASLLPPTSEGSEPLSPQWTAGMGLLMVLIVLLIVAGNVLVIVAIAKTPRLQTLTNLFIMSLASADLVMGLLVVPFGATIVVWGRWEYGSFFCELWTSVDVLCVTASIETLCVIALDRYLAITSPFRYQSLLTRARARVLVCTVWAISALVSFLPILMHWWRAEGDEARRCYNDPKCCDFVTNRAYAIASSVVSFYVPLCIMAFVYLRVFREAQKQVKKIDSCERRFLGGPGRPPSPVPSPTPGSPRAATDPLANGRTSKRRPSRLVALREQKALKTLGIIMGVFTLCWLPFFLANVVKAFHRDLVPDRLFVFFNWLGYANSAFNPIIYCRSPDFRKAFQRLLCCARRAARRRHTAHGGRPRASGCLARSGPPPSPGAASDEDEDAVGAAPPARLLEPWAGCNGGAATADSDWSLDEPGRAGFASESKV

Kb [1] [nM] | Kb [2] [nM] | Structure (SMILES)
1.26 |  | CC(C)NCC(O)COc1ccc(-c2nc(-c3cccs3)c[nH]2)cc1 (stereo not given)
25.1 |  | CC(C)NCC(O)COc1ccc(-c2ncc[nH]2)cc1 (stereo not given)

Further lines, the molecule ahead of its results:

Structure (SMILES) | Kb [1] [nM] | Kb [2] [nM]
COCCOc1ccc(OCC(O)CNC(C)C)cc1 (stereo not given) |  | 398
CCc1ccc(OCC(O)CNC(C)C)cc1 (stereo not given) | 63.1 | 
CC(C)NCC(O)COc1ccc(OCCOCCc2ccc(F)cc2)cc1 (stereo not given) | 6.31 | 
